# Measurements reported in PMC7497679, “Structure-based design, synthesis, and evaluation of the biological activity of novel phosphoroorganic small molecule IAP antagonists” (Investigational New Drugs, 2020).
# Molecular target: T1, cIAP1 (Homo sapiens, UniProt Q13490)
# T1 construct: induce autoubiquitination and degradation of cIAP1 in MDA-MB-231 breast cancer cells; endogenous in cells; host or cells: MDA-MB-231
# Assay: Western blot analysis of cIAP1 autoubiquitination and proteasomal degradation in MDA-MB-231 cells
# Type: cell-based
# Conditions: 10 µM, 15 and 120 min
# Description: Prior to Western blot sample collection, cells were harvested by trypsinization, counted and seeded on 50 mm Petri dishes. After overnight incubation, the culture medium was replaced with fresh medium containing the tested compounds at the target concentration ranges with 0.1% (v/v) DMSO as a control. Next, the cells were washed with PBS and lysed with ice-cold RIPA buffer containing protease and phosphatase inhibitors (Sigma-Aldrich, Poznań, Poland), and after debris removal (4 °C, 15 min, 16,000 × g), the lysates were used in further experiments.
# MDA-MB-231 cell lysates (25 µg of total protein/lane) were resolved by SDS-PAGE (4–12%, Tris-glycine, reducing conditions) and transferred onto a nitrocellulose membrane (0.45 µm pore size; Thermo Scientific, Gdańsk, Poland) using the semi-dry blotting system (Cleaver Scientific, Rugby, UK). The membrane was washed with 10 mM PBS (pH 7.4; 5 min, r.t.) and blocked with 5% skim milk in PBS supplemented with 0.05% Tween-20 (PBST) for 1 h at r.t. Subsequently, the membrane was washed with PBST (3 times for 5 min, r.t.) and incubated with rabbit anti-cIAP1 monoclonal IgG (1:1,000 in 0.5% skim milk in PBST; 4 °C, overnight; Cell Signaling Technology, Warszawa, Poland, Cat# 7065, D5G9). […]
# T1 sequence (Q13490 whole entry): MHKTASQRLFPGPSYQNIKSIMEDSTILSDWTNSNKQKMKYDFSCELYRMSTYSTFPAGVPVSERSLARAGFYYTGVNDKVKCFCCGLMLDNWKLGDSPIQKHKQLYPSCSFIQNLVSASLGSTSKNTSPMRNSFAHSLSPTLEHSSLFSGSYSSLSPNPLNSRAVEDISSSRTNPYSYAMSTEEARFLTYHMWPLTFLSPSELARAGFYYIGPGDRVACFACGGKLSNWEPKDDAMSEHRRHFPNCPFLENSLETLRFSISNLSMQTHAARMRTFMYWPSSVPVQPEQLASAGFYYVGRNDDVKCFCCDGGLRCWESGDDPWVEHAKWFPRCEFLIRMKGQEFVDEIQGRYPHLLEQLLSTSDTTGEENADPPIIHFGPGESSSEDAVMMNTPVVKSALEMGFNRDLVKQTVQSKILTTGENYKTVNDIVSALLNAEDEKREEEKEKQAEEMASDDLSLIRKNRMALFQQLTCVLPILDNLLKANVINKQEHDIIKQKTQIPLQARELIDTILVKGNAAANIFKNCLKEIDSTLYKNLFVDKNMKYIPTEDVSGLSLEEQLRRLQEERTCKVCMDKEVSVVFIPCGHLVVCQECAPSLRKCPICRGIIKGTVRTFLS
row,SMILES,induction of autoubiquitination and degradation of cIAP1
1,"CN[C@@H](C)C(=O)N[C@H](C(=O)N1CCC[C@H]1C(=O)NC(Cc1ccccc1)P(=O)(Oc1ccccc1)Oc1ccccc1)C1CCCCC1 (stereo partly drawn) [Compound 42, diphenyl (1-((S)-1-((S)-2-cyclohexyl-2-((S)-2-(methylamino)propanamido)acetyl)pyrrolidine-2-carboxamido)-2-phenylethyl)phosphonate]",greatest ability to induce cIAP1 degradation
2,"CN[C@@H](C)C(=O)N[C@H](C(=O)N1CCC[C@H]1C(=O)NC(Cc1ccccc1)P(=O)(Oc1ccccc1)Oc1ccccc1)C(C)C (stereo partly drawn) [Compound 41, diphenyl (1-((S)-1-((S)-3-methyl-2-((S)-2-(methylamino)propanamido)butanoyl)pyrrolidine-2-carboxamido)-2-phenylethyl)phosphonate]",greatest ability to induce cIAP1 degradation
